Among the test systems are A498 renal; COLO 205 colon; HCT-15 colon; MALME-3M melanoma; MDA-MB-435; OVCAR-5 ovarian; SNB-19 CNS; TK-10 renal; U251 CNS; UO-31 renal.
Holding throughout (test): DTP human tumour cell line panel, 48 h

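How tested: cells in 96-well plates exposed to compound for 48 hours at five concentrations. GI50: concentration for 50% inhibition of growth. At the TGI there is no net growth.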

Regarding `O=C(NCCCNc1cc(-c2cn(-c3ccccc3)nc2-c2cccc(O)c2)ccn1)c1ccccc1`, the GI50 in the test with A498 renal is 2.32 µM; in the test with COLO 205 colon, 1.71 µM; with HCT-15 colon, 1.51 µM; in the test with MALME-3M melanoma, 1.73 µM; in the test with MDA-MB-435 it was 1.87 µM; in the test on OVCAR-5 ovarian it was 3.93 µM. Moreover, the GI50 with SNB-19 CNS was 7.75 µM; in the test with TK-10 renal it was 8.39 µM; with U251 CNS, 4.12 µM; in the test on UO-31 renal it was 2.36 µM. For the same molecule, the concentration for total growth inhibition (TGI) with A498 renal was determined as 66.4 µM; in the test on COLO 205 colon it was 3.67 µM; in the test with HCT-15 colon it was 5.12 µM; in the test with MALME-3M melanoma, 4.53 µM; in the test on MDA-MB-435, 4.75 µM; in the test on OVCAR-5 ovarian, 75 µM. For the same molecule, the concentration for total growth inhibition (TGI) was greater than 100 µM with SNB-19 CNS, 52.6 µM in the test on TK-10 renal, 21 µM in the test with U251 CNS and 23.6 µM in the test on UO-31 renal.
`CC(C)c1ccc(/C(C(=O)O)=C(\O)C(=O)O)cc1`: the TGI in the test with A498 renal, in the test on COLO 205 colon, in the test on HCT-15 colon, in the test with MALME-3M melanoma, in the test on MDA-MB-435 and in the test on OVCAR-5 ovarian was greater than 100 µM throughout. The concentration for total growth inhibition (TGI) in the test with SNB-19 CNS, in the test on TK-10 renal, with U251 CNS and in the test on UO-31 renal was greater than 100 µM in each case.
Regarding `O=C1C=C(Br)C(=O)C12CCc1ccccc12` (stereo not given), the concentration for total growth inhibition (TGI) with A498 renal was 24.1 µM; with COLO 205 colon it was 11.2 µM; with HCT-15 colon, 19.7 µM; in the test on MALME-3M melanoma it was 29.5 µM; with MDA-MB-435, 31.8 µM; in the test on OVCAR-5 ovarian it was 33.3 µM. The TGI is 66.6 µM in the test with SNB-19 CNS, 32.3 µM in the test with TK-10 renal, 41.8 µM with U251 CNS and 33 µM in the test on UO-31 renal.
Consider `CN1CCCN(C)C1c1cc([N+](=O)[O-])ccc1O`, for which the concentration for total growth inhibition (TGI) in the test on A498 renal is greater than 100 µM; in the test with COLO 205 colon, greater than 100 µM; with HCT-15 colon it was greater than 100 µM; with MALME-3M melanoma, 63.7 µM; in the test on MDA-MB-435, greater than 100 µM; in the test on OVCAR-5 ovarian it was greater than 100 µM. The total growth inhibition concentration (TGI) in the test on SNB-19 CNS was greater than 100 µM; in the test with TK-10 renal it was greater than 100 µM; in the test on U251 CNS it was greater than 100 µM; in the test with UO-31 renal it was 64.8 µM.
In the case of `COc1ccc(/C=C/c2nc(NCCCN(C)C)c3ccccc3n2)cc1`, the GI50 in the test on A498 renal is 14 µM; in the test with COLO 205 colon, 1.8 µM; with HCT-15 colon it was 16.3 µM; with MALME-3M melanoma, 1.62 µM; with MDA-MB-435, 1.81 µM; with OVCAR-5 ovarian it was 5.58 µM. Also, the GI50 is 4.31 µM in the test with SNB-19 CNS, 6.59 µM with TK-10 renal, 1.79 µM in the test on U251 CNS and 14.1 µM with UO-31 renal. Besides, the TGI turned out to be 27.7 µM in the test with A498 renal; 3.3 µM in the test with COLO 205 colon; 30.8 µM in the test on HCT-15 colon; 3.18 µM with MALME-3M melanoma; 3.65 µM in the test with MDA-MB-435; 13.6 µM in the test on OVCAR-5 ovarian. In addition, the TGI turned out to be 9.67 µM in the test on SNB-19 CNS, 22 µM in the test with TK-10 renal, 3.37 µM in the test on U251 CNS and 29.4 µM in the test with UO-31 renal.
For the molecule `C=C1C(=O)O[C@H]2[C@H]1CC/C(COC(=O)NCc1ccc(Cn3c(=O)sn(CCCCl)c3=O)cc1)=C\CC[C@@]1(C)O[C@@H]21`, the GI50 was 2.83 µM in the test on A498 renal; 2.04 µM in the test with COLO 205 colon; 1.94 µM in the test with HCT-15 colon; 1.34 µM in the test on MALME-3M melanoma; 1.8 µM in the test with MDA-MB-435; 2.64 µM in the test on OVCAR-5 ovarian. Also, the GI50 was 4.84 µM in the test on SNB-19 CNS, 1.75 µM with TK-10 renal, 5.05 µM in the test with U251 CNS and 1.4 µM in the test on UO-31 renal. Further, the TGI came out at 11.8 µM in the test with A498 renal; 3.92 µM with COLO 205 colon; 4.25 µM with HCT-15 colon; 3.05 µM in the test with MALME-3M melanoma; 3.89 µM in the test with MDA-MB-435; 5.95 µM in the test with OVCAR-5 ovarian. Moreover, the total growth inhibition concentration (TGI) in the test with SNB-19 CNS was 17.4 µM; with TK-10 renal it was 3.34 µM; in the test with U251 CNS, 17.2 µM; in the test with UO-31 renal, 2.75 µM.
On to `CCCCCCCCCCN(CCCCCCCCCC)CC(=O)c1ccc2cc(Br)c3ccccc3c2c1`, for which the GI50 with A498 renal was 10.2 µM; in the test on COLO 205 colon, 1.66 µM; in the test with HCT-15 colon, 1.52 µM; in the test on MALME-3M melanoma, 1.71 µM; in the test on MDA-MB-435, 1.76 µM; in the test with OVCAR-5 ovarian, 2.23 µM. Moreover, the GI50 in the test on SNB-19 CNS is 2.04 µM; in the test on TK-10 renal, 1.76 µM; in the test on U251 CNS it was 1.91 µM; in the test with UO-31 renal, 1.86 µM. For the same molecule, the TGI in the test with A498 renal stood at 22.4 µM; in the test on COLO 205 colon, 3.16 µM; in the test with HCT-15 colon, 3.34 µM; with MALME-3M melanoma, 3.57 µM; with MDA-MB-435, 3.42 µM; in the test with OVCAR-5 ovarian it was 5.6 µM. Moreover, the TGI was 5.75 µM with SNB-19 CNS, 3.26 µM with TK-10 renal, 3.55 µM in the test on U251 CNS and 7.2 µM with UO-31 renal.
In the case of `N#Cc1c(-c2ccccc2)cc(-c2ccc(Nc3nc(Nc4ccc(Cl)cc4)nc(Nc4ccc(Cl)cc4)n3)cc2)nc1N`, the GI50 with A498 renal is 1.28 µM; with COLO 205 colon, 1.78 µM; in the test with HCT-15 colon it was 1.56 µM; in the test on MALME-3M melanoma, 1.69 µM; in the test on MDA-MB-435, 2.8 µM; in the test with OVCAR-5 ovarian, 4.13 µM. In addition, the GI50 in the test on SNB-19 CNS was 29.7 µM; in the test on TK-10 renal, 1.89 µM; in the test on U251 CNS, 2.63 µM; in the test with UO-31 renal, 1.1 µM. In addition, the TGI with A498 renal is 8.72 µM; with COLO 205 colon, 3.96 µM; with HCT-15 colon it was 5.1 µM; in the test on MALME-3M melanoma, 3.62 µM; with MDA-MB-435 it was 14.1 µM; in the test on OVCAR-5 ovarian, 17.6 µM. In addition, the TGI in the test on SNB-19 CNS is greater than 100 µM; in the test on TK-10 renal, 4.4 µM; with U251 CNS it was 10.2 µM; in the test on UO-31 renal, 2.33 µM.
`O=c1[nH]c(=O)n(C2OC(CO)C(O)C2O)c2c1CCCC2` (stereo not given): the total growth inhibition concentration (TGI) in the test with A498 renal, in the test with COLO 205 colon, in the test on HCT-15 colon, in the test on MALME-3M melanoma, in the test with MDA-MB-435 and in the test with OVCAR-5 ovarian was greater than 100 µM in each case. The TGI in the test with SNB-19 CNS, in the test on TK-10 renal, in the test on U251 CNS and in the test with UO-31 renal was greater than 100 µM throughout.
